Entries after “also recorded” stand apart in the source; their conditions may differ.
Experiments:
[1] = system: citric acid (0.25 M)-induced cough; experiment: Citric acid-induced cough in OVA-sensitized cough model guinea pigs, oral administration; type: in vivo, Hartly strain guinea pigs; conditions: oral 1 mg/kg 1 h before citric acid stimulation; for cough response increased due to airway inflammation: OVA-sensitized cough group guinea pigs
Excerpt: When OVA, a foreign antigen, is inhaled, airway inflammation accompanied by eosinophil infiltration is induced. Consequently, OVA-sensitized guinea pigs present symptoms of allergic cough and atopic cough. Thus, the guinea pigs have been widely used as a pathological model (antigen-induced airway inflammation model animals) reflecting human clinical conditions. Here, in the Examples of the present application, whether a compound(s) of the present application elicited cough inhibitory action against the pathological model was evaluated.
The OVA-sensitized cough model guinea pigs were produced specifically by the following procedure.
Note that in the following procedure, Ovalbumin or mepyramine maleate is dissolved in saline and then used.
The number of citric acid-induced coughs is measured. Then, a mixture of 200 μL of 0.05% OVA (Ovalbumin) and 100 μL of Imject Alum (prepared by suspending aluminum hydroxide and magnesium hydroxide, each at a concentration of 40 mg/mL, in water and by adding an inactivating stabilizer thereto) per guinea pig is administered intraperitoneally (i.p.).
After the intraperitoneal administration, 0.5% OVA is given for 5 min by inhalation at days 7, 14, 21, and 28.
Note that at 30 min before the inhalation, mepyramine maleate (10 mg/kg) is given i.p. to prevent a shock symptom.
At Day 35, 0.5% ovalbumin is given for 60 min by inhalation. Note that at 30 min before the inhalation, mepyramine maleate (10 mg/kg) is given i.p. to prevent a shock symptom.
The next day of the final 0.5% ovalbumin challenge (day 35), the test is conducted.
(§1) OVA-sensitized cough model guinea pigs were used and stimulated with 0.25 M citric acid by the same procedure as of Example 9 to induce cough reflux. For guinea pigs used in this Example, Hartly strain guinea pigs were used for any of the below-described pretreatment guinea pigs, sham group guinea pigs, and OVA-sensitized cough group guinea pigs.
as §1, with “10” for “9”

[2] = system: citric acid (0.25 M)-induced cough; experiment: Citric acid-induced cough in mice, local application by inhalation using a nebulizer; type: in vivo, ICR strain mice; conditions: inhalation of 10, 30 or 100 μg/mL by nebulizer, 0.25 M citric acid after 4 min
Excerpt: (§2) Cough reflux is induced by inhalation of (in the case of mice, 0.1 M or 0.25 M and in the case of guinea pigs, 0.25 M or 0.5 M) citric acid by mice or guinea pigs under non-anesthesia conditions. The citric acid is made aerosol by using an ultrasonic nebulizer (NE-U17: OMRON Corporation), and is inhaled while the air is supplied with an artificial respirator (SN-480-7: Shinano Seisakusho). The citric acid aerosol has an average particle size of from 1 to 8 μm, and the artificial respirator is used to supply the air at a one-time ventilation volume of 6 mL, a frequency of 30 times per min, and an inhalation period of 3 min.
(§3) The respiration and the cough reflux are measured in accordance with the body-plethysmograph method. […] The respiration is recorded in a PC (IdeaPad 300: Lenovo) for measurement by measuring, as a change in volume of the cylinder, the chest movement of each experimental animal in the cylinder by using a PowerLab (ML826 PowerLab 2/26: AD Instruments) via a respiratory flow meter. […] This change is recorded using the respiratory flow meter. This frequency is recorded to measure the number of coughs. The data is analyzed by LabChart version 8 (ADInstruments). In addition, immediately before inhalation of citric acid, the respiratory frequency per 15 sec is measured. […]

[3] = system: citric acid (0.25 M)-induced cough; experiment: Citric acid-induced cough reflux in pretreatment mice, oral administration; type: in vivo, ICR strain mice
[4] = system: ACh-induced contraction of bronchial smooth muscle; experiment: Contraction of tracheobronchial smooth muscles excised from guinea pig (isometric tension, organ bath)
Protocol: An animal was sacrificed by phlebotomy while the ventral aorta was dissected under urethane (2 g/kg, i.p.) anesthesia. Then, a left major bronchial tissue was excised. After a connective tissue and blood vessels were removed, each ring specimen with a width of about 3 mm was prepared and suspended in an organ bath. Then, the isometric tension was measured while the resting tension was set to 1.0 g. After the baseline tension was stabilized, whether each ring specimen was subject to an acetylcholine (ACh: 10^−3 M)-mediated contraction reaction was verified. Then, the following mater was investigated. […] Next, a tracheal or left major bronchial tissue was excised. After a connective tissue and blood vessels were removed, each ring specimen with a width of about 3 mm was prepared and suspended in an organ bath. Then, the isometric tension was measured while the resting tension was set to 1.0 g. After the baseline tension was stabilized, whether each ring specimen was subject to an acetylcholine (ACh: 10^−3 M)-mediated contraction reaction was verified. Then, the following mater was investigated. […] The specimen was likewise treated with just 0.1% DMSO.

[5] = system: citric acid (0.1 M)-induced cough; experiment: Citric acid-induced cough in airway inflammation (LPS) model mice, oral administration; type: in vivo, ICR strain mice; conditions: oral 0.3 mg/kg 1 h before 0.1 M citric acid stimulation
Protocol: Model mice with chronic cough caused by airway inflammation (referred to as “airway inflammation model mice”) were produced.
The airway inflammation model mice were produced while the mice were nasally instilled with lipopolysaccaride (LPS:1 μg/100 μL) daily for 3 days under diethyl ether inhalation anesthesia.
In addition, experiments for evaluating medicament efficacy on the airway inflammation model mice were conducted at 24 h after the final LPS administration.
Cough reflux is induced by inhalation of (in the case of mice, 0.1 M or 0.25 M and in the case of guinea pigs, 0.25 M or 0.5 M) citric acid by mice or guinea pigs under non-anesthesia conditions. […]
as §3

[6] = system: citric acid (0.5 M)-induced cough; experiment: Citric acid-induced cough reflux in pretreatment guinea pigs, oral administration; type: in vivo, Hartly strain guinea pigs; conditions: guinea pigs; for inhibition of citric acid-induced cough (number of coughs): oral (compound A 1, 3, 10 mg/kg; compound B 1, 3, 10, 30 mg/kg); for inhibition of citric acid-induced cough (number of coughs) / dose at which a significant inhibitory action on citric acid-induced cough was exhibited: 0.5 M citric acid 1 h after administration; for dose at which a significant inhibitory action on citric acid-induced cough was exhibited: oral
Excerpt: as §2
The respiration and the cough reflux are measured in accordance with the body-plethysmograph method. The plethysmograph used includes: a plastic-made, cylindrical cylinder part in which the trunk of each mouse or guinea pig is housed; and a cap part that covers the head portion (any plastic-made cylinder is allowed as long as each experimental animal can be put in; in the case of the mouse, for instance, the part with a diameter of 4 cm and a length of 7 cm was used). An exhaust hole is created at an upper cylinder portion so as to be able to connect, via a silicon tube, to a respiratory flow meter (TP-602T: NIHON KOHDEN CORPORATION). To tightly seal the inside of the cylinder, a rubber or celluloid collar is attached to the neck of each animal, and the cap covering the whole head is used to fix them. The head-attached cap part has an exhaust port and an inhalation port created for inhalation of a cough-inducing substance. In addition, a screw-type lid is attached to a tail portion of the cylinder so as to move in or out each experimental animal. Each mouse is put in the cylinder, allowed to play for at least 30 min, adapted to an experimental environment, and then subjected to the experiment. The respiration is recorded in a PC (IdeaPad 300: Lenovo) for measurement by measuring, as a change in volume of the cylinder, the chest movement of each experimental animal in the cylinder by using a PowerLab (ML826 PowerLab 2/26: AD Instruments) via a respiratory flow meter. When a cough is induced, the chest of the experimental animal is moved vigorously, which causes an instantaneous large volume change in the cylinder. This change is recorded using the respiratory flow meter. This frequency is recorded to measure the number of coughs. The data is analyzed by LabChart version 8 (ADInstruments). In addition, immediately before inhalation of citric acid, the respiratory frequency per 15 sec is measured.
In this way, the effects were investigated.
At that time, Hartly strain guinea pigs were used as the guinea pigs, and 0.5 M citric acid was used as the citric acid.
In this way, the effects were investigated. Here, 0.5 M citric acid was used as the pretreated citric acid.

| Structure (SMILES) | cough response increased due to airway inflammation [1] | change in the number of coughs in sham group guinea pigs [1] | antitussive effect by local application [2] | medicament efficacy on citric acid-induced cough at 0.3 mg/kg ([3]; oral 0.3 mg/kg, examination of Example 3) | cough inhibition rate, compound A versus the same dose of dihydrocodeine ([3]; oral 10 mg/kg, 0.25 M citric acid 1 h after administration) | inhibition of citric acid-induced cough (number of coughs) ([3]; oral 0.3, 1, 3 or 10 mg/kg, citric acid stimulation 1 h after administration) | dose at which a significant inhibitory action on citric acid-induced cough was exhibited ([3]; oral, citric acid stimulation 1 h after administration) [mg/kg] | effect on baseline tension of bronchial smooth muscle ([4]; 10^−5 M, solvent water) | effect on 10^−5 M Ach-induced contraction reaction of bronchial smooth muscle ([4]; 10^−5 M, solvent water, about 50% contraction of the maximum contraction) | cough response increased due to airway inflammation ([5]; airway inflammation group mice) | change in the number of coughs in sham group mice ([5]; sham group mice (saline instead of LPS), sodium salt, 0.3 mg/kg) | inhibition of citric acid-induced cough (number of coughs) [6] | dose at which a significant inhibitory action on citric acid-induced cough was exhibited [6] [mg/kg] | effect on ACh-induced contraction of bronchial smooth muscle ([4]; 10^−6 M in DMSO at final 0.1%, 10^−5 M ACh) | medicament efficacy on citric acid-induced cough at 1 mg/kg ([6]; oral 1 mg/kg, investigation of Example 10 (FIG. 10)) |
| --- | --- | --- | --- | --- | --- | --- | --- | --- | --- | --- | --- | --- | --- | --- | --- |
| O=C1CC(=O)N(c2cccc(-c3nnn[nH]3)c2)c2ccc3ccccc3c2N1.[Na] [compound A, 5-[3-(1H-tetrazol-5-yl)phenyl]-1H-naphtho[1,2-b][1,4]diazepin-2,4(3H,5H)-dione sodium salt] | inhibited completely | a change in the number of coughs was unobserved | elicited an antitussive effect, in a dose-dependent manner, more strongly and more rapidly using a lower dose than the case of oral administration | did not elicit any significant medicament efficacy | comparable | inhibited citric acid-induced cough in a dose-dependent manner | ≥ 1 | did not affect | did not affect | inhibited completely | a change in the number of coughs was unobserved; also recorded: did not elicit any significant medicament efficacy | inhibited citric acid-induced cough in a dose-dependent manner | ≥ 1 | – | – |
| O=C1CC(=O)N(c2ccc(NC(=O)c3ccccc3I)cc2)c2ccc3ccccc3c2N1 [compound B, 5-[4-(2-iodobenzoylamino)phenyl]-1H-naphtho[1,2-b][1,4]diazepin-2,4(3H,5H)-dione] | inhibited completely | a change in the number of coughs was unobserved | – | – | – | – | – | – | – | – | – | inhibited citric acid-induced cough in a dose-dependent manner | ≥ 1 | Neither 0.1% DMSO itself, which was a solvent, nor compound B (at 10^−6 M) affected the ACh-induced contraction of bronchial smooth muscle | does not elicit any significant medicament efficacy |

Source: US12233071B2, “Medicament for treating cough” (NIPPON CHEMIPHAR CO., LTD, priority 2018, dated 2025)
